# Test results taken from PMC6197077 (Frontiers in Immunology, 2018).
# Several values for one entry are separate records, joined by “and”; a condition that tells them apart may be missing. Equal entries are not always repeated. Entries after “also recorded” stand apart in the source; their conditions may differ. Where two headings read alike, the source gives them in different places.
# Key:
# [1] = tested on: TCR of naïve P14 CD8+ T cells (TCR:pMHC, H2D^b); assay type: binding, mice; conditions: for mean population 2D affinity (AcKa): naïve CD8+ P14 splenocytes, 50 contact cycles per cell, 3 individual experiments; for 2D affinity, result in words: naïve P14 CD8+ T cells
# [2] = tested on: TCR and CD8 of naïve P14 CD8+ T cells (TCR:pMHC:CD8, D^b); assay type: binding, mice; conditions: for normalized adhesion bonds, mean bond number (-ln(1-Pa(s))/mpMHC): P14 CD8+ T cells, wild type (CD8-intact) pMHC monomers, 3 individual experiments; for total bond number hierarchy: single P14 T cell probed against all three pMHC (Figure 2B)
# [3] = tested on: P14 TCR (TCR:pMHC, D^b D227K); assay type: binding, mice; conditions: for peak bond lifetime under force, CD8-null: BFP force-clamp, absence of CD8 (CD8-null pMHC), peak of force curve, >1,000 bond lifetimes per curve; for bond lifetime by BFP for the TCR alone: restated range in Discussion; for bond lifetime at ~10 pN, CD8-null: ~10 pN of force, CD8-null (Figures 3D,E)
# [4] = tested on: P14 TCR with CD8 coreceptor (TCR:pMHC:CD8); assay type: binding, mice; conditions: for peak bond lifetime under force, CD8-intact: BFP force-clamp, CD8-intact pMHC, peak of force curve, >1,000 bond lifetimes per curve; for bond lifetime at ~10 pN, CD8-intact: ~10 pN of force, CD8-intact (Figures 3F,G)
# P14 CD8+ T cells [5] = assay type: cell-based, mice; conditions: for ligand potency: at equivalent peptide doses, not factoring in peptide loading; for %Nur77+: representative of 3 experiments, n = 3-4 mice; for signal strength as measured by Nur77 upregulation: P14 CD8 T cells re-stimulated ex vivo
# P14 CD8+ T cells [6] = assay type: cell-based, mice; conditions: for IRF4 MFI at low peptide doses: P14 CD8+ T cells (Figure 4H)
# P14 CD8+ T cells [7] = assay type: cell-based, mice
# polyclonal CD8+ T cells [8] = assay type: cell-based, mice; conditions: for Nur77 MFI: polyclonal CD8 T cells, 1 uM (Figure 6F)
# P14 TCR = conditions: cited from earlier work; for Kd: SPR
# pMHC (T-2D^b cell line) = conditions: competition on T-2D^b cell line; versus 9-mer 41C; ref [8] Gairin et al.; cited from earlier work
# From the text: (§1) The question is to what extent loading of MHC affects the T cell response and their biology.
# polyclonal CD8+ T cells [9] = assay type: cell-based, mice
# [10] = tested on: T cells interacting with dendritic cells; conditions: peptide pulsed DCs, lymph node; versus 41C; ref Henrickson et al. [36]; cited from earlier work
# From the text: as §1
# MHC class I (D^b) = conditions: terminal cysteine; ref [27], [34]-[36]; cited from earlier work
# [11] = terminal cysteine; ref [27], [34]-[36]; cited from earlier work
# [12] = Boulter et al., ref [52], read-out: 3D affinity (as restated in Discussion)
# [13] = P14 CD8+ T cells, D8 p.i., range of peptide doses
Sequence,mean population 2D affinity (AcKa) [1] [μm^4],"2D affinity, result in words [1]","normalized adhesion bonds, mean bond number (-ln(1-Pa(s))/mpMHC) [2] [μm^2]",total bond number hierarchy [2] [M> 41C> 41CGI],"peak bond lifetime under force, CD8-null [3]","peak bond lifetime under force, CD8-intact [4]",ligand potency (P14 CD8+ T cells [5]) [M > 41C > 41CGI],IRF4 MFI at low peptide doses (P14 CD8+ T cells [6]),Nur77 MFI (polyclonal CD8+ T cells [8]),Kd (P14 TCR; [12]) [µM],bond lifetime by BFP for the TCR alone [3] [s],"bond lifetime at ~10 pN, CD8-null [3]","bond lifetime at ~10 pN, CD8-intact [4]",%Nur77+ (P14 CD8+ T cells [5]; [13]),signal strength as measured by Nur77 upregulation (P14 CD8+ T cells [5]),bond lifetime by SPR (P14 TCR; ref [51]),further results
KAVYNFATCGI [41CGI],1.55E-04,"lowest 2D affinity of the three, it still had a relatively high 2D affinity",2.93E-02,41,~ 0.1 s,~ 1.5 s,41,difference in IRF4 MFI,not significantly different,3.5,–,–,–,–,–,–,fold increase of peak bond lifetime by CD8 contribution ([4]; CD8-intact versus CD8-null pMHC): 15 fold and ~ 15 fold; IRF4 MFI at highest peptide dose (P14 CD8+ T cells [6]): did not observe a difference between 41C and 41CGI; cytokine production (P14 CD8+ T cells [7]): significantly diminished cytokine production; efficiency at competing for pMHC (pMHC (T-2D^b cell line)): six times more efficient
KAVYNFATM [41M],1.04E-03,highest 2D affinity,6.40E-01,41,~ 0.8 s,~ 3.0 s,41,difference in IRF4 MFI,–,–,0.8 to 0.9,no significant difference in bond lifetime between 41M and 41C,no significant difference in bond lifetime between 41M and 41C,higher percentage of CD8+ T cells re-stimulated with 41M expressed Nur77,stronger signal than 41C; also recorded: significantly stronger signals than 41CGI stimulated cells,~ 0.5 s,"peptide dose at which Nur77 MFI peaks (P14 CD8+ T cells [5]; P14 CD8+ T cells re-stimulated ex vivo): 0.31 µM; Nur77 MFI (P14 CD8+ T cells [5]; [13]): higher MFI (peaking at 0.31 uM) than 41C and dramatically more so than 41CGI; double producers of IFNγ and TNF (P14 CD8+ T cells [7]): significantly higher frequency; sensitivity to antigen (P14 CD8+ T cells [7]): same sensitivity to antigen; triple producers of IFNγ, TNF and IL-2 (P14 CD8+ T cells [7]): significantly higher frequency; IFNγ production (P14 CD8+ T cells [7]; P14 cells, range of peptide doses, 6 h ex vivo (Figures 5A,B)): produced the most IFNγ; agonist classification (P14 CD8+ T cells [7]; by 2D affinity measures and functionality): super agonist peptide variant; frequency of Nur77 expression (polyclonal CD8+ T cells [8]): increased frequencies of Nur77 expression; IRF4 expression (polyclonal CD8+ T cells [9]): only a slight difference between 41M and 41C; Kd (P14 TCR; ref [50], read-out: KD (3D affinity, SPR)): 17 µM; Kd (P14 TCR; ref [51], read-out: KD (3D affinity, SPR)): 9.1 µM; Kd (P14 TCR; ref [52], read-out: KD (3D affinity, SPR)): 2.3 µM; transition to phase two T cell:DC contacts [10]: transitioned more quickly to phase two"
KAVYNFATC [41C],6.62E-04,–,1.01E-01,41,~ 0.9 s,~ 1.9 s,41,difference in IRF4 MFI,not significantly different,2.3,0.8 to 0.9,longer bond lifetime than 41M and dramatically more so than 41CGI; also recorded: no significant difference in bond lifetime between 41M and 41C,no significant difference in bond lifetime between 41M and 41C,significantly higher frequencies of Nur77+ CD8+ T cells than those stimulated with 41CGI,significantly stronger signals than 41CGI stimulated cells,~ 0.5 s,"IRF4 MFI at highest peptide dose (P14 CD8+ T cells [6]; 1 uM peptide, P14 CD8+ T cells, 41C versus 41CGI): did not observe a difference between 41C and 41CGI; sensitivity to antigen (P14 CD8+ T cells [7]; 41M versus 41C, in our experiments): same sensitivity to antigen; functional responses read out by Nur77, IFNγ and IL-2 (P14 CD8+ T cells [7]; Discussion): larger responses; IRF4 expression (polyclonal CD8+ T cells [9]; polyclonal CD8 T cells, 1 uM, 41M versus 41C (Figures 6E-I)): only a slight difference between 41M and 41C; stability in the MHC (MHC class I (D^b)): decreased stability in the MHC; peptide dimer formation [11]: form peptide dimers"
